Reference: patent US6506767B1, “8-chloro-6,11-dihydro-11-(4-piperidylidine)-5H-benzo[5,6]cyclohepta[1-2-b] pyridine” (Schering Corporation, priority 1997, dated 2003)

What was measured:
[1] = test system: histamine—induced lethality in guinea pigs; assay: prevention of histamine-induced lethality in guinea pigs; format: in vivo; conditions: standard animal model
[2] = Stability testing for crystalline polymorph form 1; format: physicochemical; conditions: 25, 30 and 40° C. at relative humidities of 60%, 60% and 75%, respectively

Clc1ccc2c(c1)CCc1cccnc1C2=C1CCNCC1 [form 1, 8-chloro-6,11-dihydro-11-(4-piperidylidene)-5H-benzo[5,6]cyclohepta[1,2-b]pyridine]
antihistaminic properties: prevention of histamine—induced lethality [1]: demonstrated
change from initial sample % form 1 and related compounds [2]: < 1%
